From ChEMBL document CHEMBL5120745, “LC-MS Identification, Isolation, and Structural Elucidation of Anti-HIV Tigliane Diterpenoids from Wikstroemia lamatsoensis” (J Nat Prod, 2021)

Legend:
[1] = Cytotoxicity against human MT4 cells assessed as reduction in cell viability by CellTiter-Glo luminescence analysis; type: toxicity, cell-based
[2] = Selectivity index, ratio of CC50 for human MT4 cells to IC50 for antiviral activity against HIV-1 NL4-3 infected in human MT4 cells; type: toxicity, cell-based; settings: read-out: Ratio CC50/IC50
[3] = test system: Human immunodeficiency virus 1; assay: Antiviral activity against HIV-1 NL4-3 infected in human MT4 cells assessed as inhibition of viral replication by Nano-Glo luciferase assay; type: functional, organism-based; settings: Human immunodeficiency virus 1, NL4-3, MT4

| SMILES | CC50 [1] [nM] | selectivity ratio [2] | IC50 [3] [nM] |
| --- | --- | --- | --- |
| CCCCCCCC(=O)O[C@@]12[C@H](OC(=O)c3ccccc3)[C@@H](C)[C@]3(O)[C@@H]4C=C(C)C(=O)[C@@]4(O)[C@H](O)C(CO)=C[C@H]3[C@@H]1C2(C)C | > 41 | – | – |
| CCCCCCCC(=O)O[C@@]12[C@H](OC(=O)c3ccccc3)[C@@H](C)[C@@]3(O)[C@H]([C@@H]1C2(C)C)[C@@H](OO)C(CO)=C[C@]1(O)C(=O)C(C)=C[C@@H]31 | – | < 5 | – |
| C=C(C)[C@]12C[C@@H](COC(=O)c3ccccc3)[C@@]34OC5(O[C@@H]1[C@@H]3[C@@H]1O[C@]1(CO)[C@@H](O)[C@@]1(O)[C@H]4[C@H]([C@H](C)[C@@H]1OC(=O)c1ccccc1)[C@H](C)CCCCCC[C@H]5O)O2 | > 5 | – | 0.07 |
| CCCCCCCC(=O)O[C@@]12[C@H](OC(=O)c3ccccc3)[C@@H](C)[C@@]3(O)C(=C[C@](O)(CO)C[C@]4(O)C(=O)C(C)=C[C@@H]34)[C@@H]1C2(C)C | > 41 | – | > 41 |
| CCCCCCCC(=O)O[C@@]12[C@H](OC(=O)c3ccccc3)[C@@H](C)[C@@]3(O)[C@@H](C(=O)C(CO)=C[C@]4(O)C(=O)C(C)=C[C@@H]34)[C@@H]1C2(C)C | > 41 | – | – |
| CCCCCCCC(=O)O[C@@]12[C@H](OC(=O)c3ccccc3)[C@@H](C)[C@@]3(O)[C@H]([C@@H]1C2(C)C)[C@@H](O)C(CO)=C[C@]1(O)C(=O)C(C)=C[C@@H]31 | > 41 | – | > 41 |
| CCCCCCCC(=O)O[C@@]12[C@H](OC(=O)c3ccccc3)[C@@H](C)[C@@]3(O)[C@@H](C=C(CO)C[C@]4(O)C(=O)C(C)=C[C@@H]34)[C@@H]1C2(C)C | > 41 | – | 0.18 |
| CCCCCCCC(=O)O[C@@]12C[C@@H](C)[C@@]3(O)[C@H]([C@@H]1C2(C)C)[C@@H](OO)C(CO)=C[C@]1(O)C(=O)C(C)=C[C@@H]31 | > 41 | – | > 41 |
| CCCCCCCC(=O)O[C@@]12C[C@@H](C)[C@@]3(O)[C@@H](C(=O)C(CO)=C[C@]4(O)C(=O)C(C)=C[C@@H]34)[C@@H]1C2(C)C | > 41 | – | > 41 |
